Laboratory results as given in paper PMC11510666, “Thiazolidinedione-Conjugated Lupeol Derivatives as Potent Anticancer Agents Through a Mitochondria-Mediated Apoptotic Pathway” (Molecules, 2024).

Key:
[1] = tested on: human hepatocarcinoma HepG2; assay: MTT antiproliferative assay, HepG2; type: cell-based; conditions: for IC50: MTT, 48 h, mean ± SD, three independent experiments; for SI (selectivity index): IC50 values on L02 cells/HepG2 cells
Procedure: (§1) These cell lines were cultured in Dulbecco's Modified Eagle Medium containing 10% (v/v) fetal bovine serum (FBS, Wisent) and 1% (v/v) Penicillin-Streptomycin Solution mixture (Beyotime, Shanghai, China) at 37 °C under 5% CO2. An MTT assay evaluated the cytotoxicity of lupeol derivatives toward the A549, MCF-7, HepG2, and LO2 cell lines. The cells were inoculated into 96-well plates (3 × 10^3 cells/well) and cultured for 24 h at 37 °C in 5% CO2. After that, a gradient concentration of the test drug was added to continue the incubation for 48 h. Subsequently, the MTT solution continued to incubate with the cells for 4 h. Afterward, the upper waste layer was discarded, and DMSO was added ([…], Tianjin, China). After the formazan completely dissolved, the absorbance of each well at 490 nm was measured with a microplate reader. The mean values were derived from three independent experiments.

[2] = tested on: human breast cancer MCF-7; assay: MTT antiproliferative assay, MCF-7; type: cell-based; conditions: mean ± SD, three independent experiments
Procedure: as §1

[3] = tested on: human lung cancer A549; assay: MTT antiproliferative assay, A549; type: cell-based; conditions: 48 h, mean ± SD, three independent experiments
Procedure: as §1

[4] = tested on: human hepatic LO2 cells; conditions: read-out: IC50 LO2; MTT, 48 h, mean ± SD, three independent experiments
Procedure: as §1

Row | IC50 [1] | IC50 ([2]; 48 h) | IC50 [3] | IC50 ([1]; Homo sapiens, HepG2) | IC50 ([2]; Homo sapiens, MCF7, 48 h) | SMILES | SI (selectivity index) [1] | IC50 [4]
1 | 22.7 ± 1.59 µM | 24 ± 1.87 µM | 17.3 ± 1.58 µM | – | – | C=C(C)C1CCC2(C)CCC3(C)C(CCC4C5(C)CCC(OC(=O)CN6C(=O)SC(=Cc7ccc(F)cc7)C6=O)C(C)(C)C5CCC43C)C12 (centres unmarked) [Compound 6a, Lupeol-3-[(1-Ethyl)-2]-5-(4-Fluorobenzylidene)-2,4-Thiazolidinedione] | 4.07 | 92.6 ± 1.03 µM
2 | 16.6 ± 1.38 µM | 13.8 ± 0.75 µM | 14.2 ± 1.72 µM | – | – | C=C(C)C1CCC2(C)CCC3(C)C(CCC4C5(C)CCC(OC(=O)CN6C(=O)SC(=Cc7ccc(Cl)cc7)C6=O)C(C)(C)C5CCC43C)C12 (centres unmarked) [Compound 6b, Lupeol-3-[(1-Ethyl)-2]-5-(4-Chlorobenzylidene)-2,4-Thiazolidinedione] | 4.25 | 70.5 ± 1.51 µM
3 | 18.2 ± 1.27 µM | 22.1 ± 1.42 µM | 10.4 ± 0.82 µM | – | – | C=C(C)C1CCC2(C)CCC3(C)C(CCC4C5(C)CCC(OC(=O)CN6C(=O)SC(=Cc7ccc(C)cc7)C6=O)C(C)(C)C5CCC43C)C12 (centres unmarked) [Compound 6c, Lupeol-3-[(1-Ethyl)-2]-5-(4-Methylbenzylidene)-2,4-Thiazolidinedione] | 4.2 | 76.4 ± 1.22 µM
4 | 10.9 ± 0.78 µM | 15.4 ± 1.22 µM | 14.2 ± 1.43 µM | – | – | C=C(C)C1CCC2(C)CCC3(C)C(CCC4C5(C)CCC(OC(=O)CN6C(=O)SC(=Cc7ccc(C(C)(C)C)cc7)C6=O)C(C)(C)C5CCC43C)C12 (centres unmarked) [Compound 6d, Lupeol-3-[(1-Ethyl)-2]-5-(4-Tert-Butylphenyl)-2,4-Thiazolidinedione] | 3.61 | 39.2 ± 1.07 µM
5 | 15.5 ± 0.86 µM | 12.5 ± 0.74 µM | 9.43 ± 0.74 µM | – | – | C=C(C)C1CCC2(C)CCC3(C)C(CCC4C5(C)CCC(OC(=O)CN6C(=O)SC(=Cc7ccccc7OC)C6=O)C(C)(C)C5CCC43C)C12 (centres unmarked) [Compound 6e, Lupeol-3-[(1-Ethyl)-2]-5-(2-Methoxybenzylidene)-2,4-Thiazolidinedione] | 4.57 | 70.8 ± 0.93 µM
6 | 19.2 ± 1.57 µM | 16.1 ± 0.89 µM | 10.3 ± 0.86 µM | – | – | C=C(C)C1CCC2(C)CCC3(C)C(CCC4C5(C)CCC(OC(=O)CN6C(=O)SC(=Cc7ccc(OC)c(OC)c7OC)C6=O)C(C)(C)C5CCC43C)C12 (centres unmarked) [Compound 6f, Lupeol-3-[(1-Ethyl)-2]-5-(2,3,4-Trimethoxybenzylidene)-2,4-Thiazolidinedione] | 4.44 | 85.3 ± 1.12 µM
7 | 15.3 ± 1.32 µM | 12.8 ± 0.22 µM | 14.9 ± 1.21 µM | – | – | C=C(C)C1CCC2(C)CCC3(C)C(CCC4C5(C)CCC(OC(=O)CN6C(=O)SC(=Cc7ccco7)C6=O)C(C)(C)C5CCC43C)C12 (centres unmarked) [Compound 6g, Lupeol-3-[(1-Ethyl)-2]-5-(2-Furanylmethylene)-2,4-Thiazolidinedione] | 3.95 | 60.6 ± 1.84 µM
8 | 12.8 ± 0.97 µM | 11.3 ± 0.85 µM | 14 ± 1.39 µM | – | – | C=C(C)C1CCC2(C)CCC3(C)C(CCC4C5(C)CCC(OC(=O)CN6C(=O)SC(=Cc7cccs7)C6=O)C(C)(C)C5CCC43C)C12 (centres unmarked) [Compound 6h, Lupeol-3-[(1-Ethyl)-2]-5-(2-Thienylmethylene)-2,4-Thiazolidinedione] | 4.55 | 58.4 ± 0.78 µM
9 | 9.48 ± 0.71 µM | 8.7 ± 0.12 µM | 11.3 ± 0.91 µM | – | – | C=C(C)C1CCC2(C)CCC3(C)C(CCC4C5(C)CCC(OC(=O)CN6C(=O)SC(=CC(C)C)C6=O)C(C)(C)C5CCC43C)C12 (centres unmarked) [Compound 6i, Lupeol-3-[(1-Ethyl)-2]-5-(2-Methylpropylidene)-2,4-Thiazolidinedione] | 4.80 | 45.5 ± 1.33 µM
10 | 6.91 ± 0.31 µM | 20.1 ± 1.59 µM | 13.8 ± 0.84 µM | – | – | C=C(C)C1CCC2(C)CCC3(C)C(CCC4C5(C)CCC(OC(=O)N6CCN(C(=O)CN7C(=O)SC(=CC(C)C)C7=O)CC6)C(C)(C)C5CCC43C)C12 (centres unmarked) [Compound 9i, Lupeol-3-[(1-Piperazinyl)-4]-5-(2-Methylpropylidene)-2,4-Thiazolidinedione] | 5.12 | 35.4 ± 0.72 µM
11 | 10.7 ± 0.12 µM | 14.3 ± 0.78 µM | 13.4 ± 0.79 µM | – | – | C=C(C)C1CCC2(C)CCC3(C)C(CCC4C5(C)CCC(OC(=O)NCCNC(=O)CN6C(=O)SC(=Cc7ccc(C)cc7)C6=O)C(C)(C)C5CCC43C)C12 (centres unmarked) [Compound 12c, Lupeol-3-[(1-Ethylenediaminyl)-2]-5-(4-Methylbenzylidene)-2,4-Thiazolidinedione] | 3.79 | 40.68 ± 0.31 µM

Second part, the molecule before the results:

Row | SMILES | IC50 [1] | IC50 ([2]; 48 h) | IC50 [3] | IC50 ([1]; Homo sapiens, HepG2) | IC50 ([2]; Homo sapiens, MCF7, 48 h) | SI (selectivity index) [1] | IC50 [4]
12 | N.N.[Cl][Pt][Cl] [Cisplatin, cisplatin, reference compound] | 4.65 ± 0.54 µM | 5.79 ± 0.49 µM | 4.96 ± 0.48 µM | – | – | – | –
13 | C=C(C)C1CCC2(C)CCC3(C)C(CCC4C5(C)CCC(OC(=O)N6CCN(C(=O)CN7C(=O)SC(=Cc8ccc(F)cc8)C7=O)CC6)C(C)(C)C5CCC43C)C12 (centres unmarked) [Compound 9a, Lupeol-3-[(1-Piperazinyl)-4]-5-(4-Fluorobenzylidene)-2,4-Thiazolidinedione] | 20.5 ± 1.62 µM | 19.1 ± 1.78 µM | 18.7 ± 1.25 µM | – | – | 3.87 | 79.1 ± 1.25 µM
14 | C=C(C)C1CCC2(C)CCC3(C)C(CCC4C5(C)CCC(OC(=O)N6CCN(C(=O)CN7C(=O)SC(=Cc8ccc(Cl)cc8)C7=O)CC6)C(C)(C)C5CCC43C)C12 (centres unmarked) [Compound 9b, Lupeol-3-[(1-Piperazinyl)-4]-5-(4-Chlorobenzylidene)-2,4-Thiazolidinedione] | 18.1 ± 1.73 µM | 14 ± 0.87 µM | 15.5 ± 0.64 µM | – | – | 4.44 | 80.5 ± 1.79 µM
15 | C=C(C)C1CCC2(C)CCC3(C)C(CCC4C5(C)CCC(OC(=O)N6CCN(C(=O)CN7C(=O)SC(=Cc8ccc(C)cc8)C7=O)CC6)C(C)(C)C5CCC43C)C12 (centres unmarked) [Compound 9c, Lupeol-3-[(1-Piperazinyl)-2]-5-(4-Methylbenzylidene)-2,4-Thiazolidinedione] | 15.7 ± 1.52 µM | 16.3 ± 0.76 µM | 12.7 ± 0.68 µM | – | – | 4.14 | 65.1 ± 0.93 µM
16 | C=C(C)C1CCC2(C)CCC3(C)C(CCC4C5(C)CCC(OC(=O)N6CCN(C(=O)CN7C(=O)SC(=Cc8ccc(C(C)(C)C)cc8)C7=O)CC6)C(C)(C)C5CCC43C)C12 (centres unmarked) [Compound 9d, Lupeol-3-[(1-Piperazinyl)-4]-5-(4-Tert-Butylphenyl)-2,4-Thiazolidinedione] | 9.52 ± 0.61 µM | 18.1 ± 1.93 µM | 11.7 ± 0.75 µM | – | – | 4.43 | 42.2 ± 1.28 µM
17 | C=C(C)C1CCC2(C)CCC3(C)C(CCC4C5(C)CCC(OC(=O)N6CCN(C(=O)CN7C(=O)SC(=Cc8ccccc8OC)C7=O)CC6)C(C)(C)C5CCC43C)C12 (centres unmarked) [Compound 9e, Lupeol-3-[(1-Piperazinyl)-4]-5-(2-Methoxybenzylidene)-2,4-Thiazolidinedione] | 16.5 ± 1.26 µM | 18.6 ± 1.27 µM | 10.4 ± 0.38 µM | – | – | 3.83 | 63.3 ± 1.14 µM
18 | C=C(C)C1CCC2(C)CCC3(C)C(CCC4C5(C)CCC(OC(=O)N6CCN(C(=O)CN7C(=O)SC(=Cc8ccc(OC)c(OC)c8OC)C7=O)CC6)C(C)(C)C5CCC43C)C12 (centres unmarked) [Compound 9f, Lupeol-3-[(1-Piperazinyl)-4]-5-(2,3,4-Trimethoxybenzylidene)-2,4-Thiazolidinedione] | 10.8 ± 0.45 µM | 9.19 ± 0.46 µM | 9.24 ± 0.48 µM | – | – | 5.19 | 56.1 ± 0.77 µM
19 | C=C(C)C1CCC2(C)CCC3(C)C(CCC4C5(C)CCC(OC(=O)N6CCN(C(=O)CN7C(=O)SC(=Cc8ccco8)C7=O)CC6)C(C)(C)C5CCC43C)C12 (centres unmarked) [Compound 9g, Lupeol-3-[(1-Piperazinyl)-4]-5-(2-Furanylmethylene)-2,4-Thiazolidinedione] | 15 ± 0.74 µM | 12 ± 0.75 µM | 9.91 ± 0.42 µM | – | – | 4.19 | 62.77 ± 0.62 µM
20 | C=C(C)C1CCC2(C)CCC3(C)C(CCC4C5(C)CCC(OC(=O)N6CCN(C(=O)CN7C(=O)SC(=Cc8cccs8)C7=O)CC6)C(C)(C)C5CCC43C)C12 (centres unmarked) [Compound 9h, Lupeol-3-[(1-Piperazinyl)-4]-5-(2-Thienylmethylene)-2,4-Thiazolidinedione] | 15.3 ± 0.98 µM | 13.8 ± 0.58 µM | 16.4 ± 1.69 µM | – | – | 4.50 | 68.9 ± 1.19 µM
21 | C=C(C)C1CCC2(C)CCC3(C)C(CCC4C5(C)CCC(OC(=O)NCCNC(=O)CN6C(=O)SC(=Cc7ccc(F)cc7)C6=O)C(C)(C)C5CCC43C)C12 (centres unmarked) [Compound 12a, Lupeol-3-[(1-Ethylenediaminyl)-4]-5-(4-Fluorobenzylidene)-2,4-Thiazolidinedione] | 16.5 ± 0.54 µM | 16.8 ± 1.29 µM | 10.5 ± 0.56 µM | – | – | 4.30 | 71.03 ± 0.57 µM
22 | C=C(C)C1CCC2(C)CCC3(C)C(CCC4C5(C)CCC(OC(=O)NCCNC(=O)CN6C(=O)SC(=Cc7ccc(Cl)cc7)C6=O)C(C)(C)C5CCC43C)C12 (centres unmarked) [Compound 12b, Lupeol-3-[(1-Ethylenediaminyl)-4]-5-(4-Chlorobenzylidene)-2,4-Thiazolidinedione] | 17.7 ± 0.79 µM | 19.1 ± 1.63 µM | 17.1 ± 1.28 µM | – | – | 4.35 | 76.87 ± 0.69 µM
23 | C=C(C)[C@@H]1CC[C@]2(C)CC[C@]3(C)[C@H](CC[C@@H]4[C@@]5(C)CC[C@H](O)C(C)(C)[C@@H]5CC[C@]43C)[C@@H]12 [Lupeol] | – | – | – | 43.6 ± 1.37 µM | 62 ± 1.79 µM | – | –
